According to publication PMC10265666, “Lung SPLUNC1 Peptide Derivatives in the Lipid Membrane Headgroup Kill Gram-Negative Planktonic and Biofilm Bacteria” (Biomacromolecules, 2023):
Several values for one entry are separate records, joined by “and”; a condition that tells them apart may be missing. Equal entries are not always repeated. No end group written: not given here.

Legend:
[1] = Circular dichroism secondary structure in G(−)IM ULVs; format: physicochemical; details: 10 μM peptide, 15 mM PBS pH 7, 37 °C
Description: Unilamellar vesicles (ULVs) of ∼600 Å diameter were prepared using an Avanti extruder: 200 μL of 20 mg/ml G(−)IM lipid in 15 mM PBS was extruded 21 times through Nucleopore filters of size 500 Å using 0.2 mL Hamilton syringes in the Avanti extruder. The final concentration of G(−)IM lipid in the ULVs was determined gravimetrically to be 15 mg/ml. Concentrated ULVs were added to 3 mL of 10 μM peptide in 15 mM PBS at pH 7 to create lipid/peptide molar ratios between 0:1 and 70:1. The samples remained at room temperature for ∼16 h before the CD measurement. Data were collected in 3 mL quartz cuvettes using a Jasco 1500 CD spectrophotometer at 37 °C in the Center for Nucleic Acids Science and Technology at Carnegie Mellon University. The samples were scanned from 200 to 240 nm 20 times, and the ellipticity (ϵ) results were averaged. Temperature was controlled at 37 °C via a Peltier element and water circulation through the sample compartment. Nitrogen gas was used at a flow rate between 20 and 25 ft^3/h (CFH). The parameters for scanning were: speed 100 nm/min, step size 1.0 nm, response time 1 second, bandwidth 1 nm, and sensitivity of 20 mdeg. OriginPro 2019 (OriginLab, Northampton, MA) was used to carry out a linear least-squares fit of the smoothed ellipticity traces to four secondary structural motifs representing α-helix, β-sheet, β-turn, and random coil.[20] This analysis gives a percentage match of each of the secondary structural motifs to the total sample ellipticity. Data were finally converted to mean residue ellipticity, taking into account the peptide concentration (10 μMolar) and number of amino acids (N), using the equation: MRE = (10^4/N)ϵ deg cm^2/dmol.

[2] = Circular dichroism secondary structure in Euk33 ULVs; format: physicochemical; details: 10 μM peptide, 15 mM PBS pH 7, 37 °C
[3] = test system: eukaryotic cells vs bacteria; assay: Therapeutic index (eukaryotic cell kill concentration / bacterial kill concentration); format: cell-based; details: for concentration at which ≥90% of bacteria are killed: denominator of TI; for concentration at which ≥90% of eukaryotic cells are killed (estimated): numerator of TI
Description: But more important than cytotoxicity is the therapeutic index (TI), which is the concentration at which ≥90% of eukaryotic cells are killed divided by the concentration at which ≥90% of bacteria are killed. For A4-153, this TI value is an estimated ≈ 128 μM/16 μM ≈ 8. TI for A4-157 is an estimated 128 μM/24 μM ≈ 5, and the TI for A4-183 is an estimated 64 μM/20 μM ≈ 3.

HBE cells = format: cell-based
Description: (§1) page 4: Additional toxicity studies at 16 hours incubation with peptides Figure S3. Figure S4. […]

THP-1 cells = format: cell-based
Description: as §1

[4] = G(−)IM/peptide molar ratio 10:1
[5] = G(−)IM/peptide molar ratio 15:1
[6] = G(−)IM/peptide molar ratio 20:1
[7] = G(−)IM/peptide molar ratio 25:1
[8] = G(−)IM/peptide molar ratio 30:1
[9] = G(−)IM/peptide molar ratio 40:1
[10] = G(−)IM/peptide molar ratio 50:1
[11] = G(−)IM/peptide molar ratio 70:1

CC(C)[C@H](NC(=O)CNC(=O)CNC(=O)[C@@H](NC(=O)[C@H](Cc1c[nH]c2ccccc12)NC(=O)CNC(=O)[C@H](CCCCN)NC(=O)[C@@H](NC(=O)[C@H](CCCCN)NC(=O)[C@H](CCCCN)NC(=O)[C@H](Cc1ccccc1)NC(=O)[C@H](Cc1ccccc1)NC(=O)[C@H](CCCCN)NC(=O)[C@H](CCCCN)NC(=O)[C@@H](N)Cc1ccccc1)C(C)C)C(C)C)C(=O)N[C@@H](Cc1c[nH]c2ccccc12)C(=O)NCC(=O)N[C@@H](CCCCN)C(=O)N[C@H](C(=O)N[C@@H](CCCCN)C(=O)N[C@@H](CO)C(=O)N[C@H](C(=O)N[C@H](C(=O)N[C@@H](CCCCN)C(=O)O)C(C)C)C(C)C)C(C)C (stereo in doubt) [A4-157]
Random ([1]; G(−)IM/peptide molar ratio 0:1): 61.7%
α-helix ([1]; G(−)IM/peptide molar ratio 0:1): 4.57%
β-sheet ([1]; G(−)IM/peptide molar ratio 0:1): 33.6%
β-turn ([1]; G(−)IM/peptide molar ratio 0:1): 0%
Random ([1]; G(−)IM/peptide molar ratio 1:1): 61.7%
α-helix ([1]; G(−)IM/peptide molar ratio 1:1): 6.9%
β-sheet ([1]; G(−)IM/peptide molar ratio 1:1): 31.4%
β-turn ([1]; G(−)IM/peptide molar ratio 1:1): 0%
Random ([1]; G(−)IM/peptide molar ratio 5:1): 59.5%
α-helix ([1]; G(−)IM/peptide molar ratio 5:1): 15.1%
β-sheet ([1]; G(−)IM/peptide molar ratio 5:1): 25.4%
β-turn ([1]; G(−)IM/peptide molar ratio 5:1): 0%
Random [1, 4]: 52.6%
α-helix [1, 4]: 19.0%
β-sheet [1, 4]: 28.3%
β-turn [1, 4]: 0.1%
Random [1, 5]: 20.1%
α-helix [1, 5]: 46.0%
β-sheet [1, 5]: 33.9%
β-turn [1, 5]: 0%
Random [1, 6]: 26.5%
α-helix [1, 6]: 49.3%
β-sheet [1, 6]: 24.2%
β-turn [1, 6]: 0%
Random [1, 7]: 8.3%
α-helix [1, 7]: 61.0%
β-sheet [1, 7]: 28.5%
β-turn [1, 7]: 2.2%
Random [1, 8]: 8.1%
α-helix [1, 8]: 62.1% and 62%
β-sheet [1, 8]: 28.7%
β-turn [1, 8]: 1.1%
Random [1, 9]: 0%
α-helix [1, 9]: 59.5%
β-sheet [1, 9]: 40.5%
β-turn [1, 9]: 0%
Random [1, 10]: 1.0%
α-helix [1, 10]: 56.4%
β-sheet [1, 10]: 33.6%
β-turn [1, 10]: 0%
Random [1, 11]: 13.2%
α-helix [1, 11]: 51.2%
β-sheet [1, 11]: 35.6%
β-turn [1, 11]: 0%
Random ([2]; Euk33/peptide molar ratio 0:1): 61.7%
α-helix ([2]; Euk33/peptide molar ratio 0:1): 4.57%
β-sheet ([2]; Euk33/peptide molar ratio 0:1): 33.6%
β-turn ([2]; Euk33/peptide molar ratio 0:1): 0%
Random ([2]; Euk33/peptide molar ratio 5:1): 64.2%
α-helix ([2]; Euk33/peptide molar ratio 5:1): 3.3%
β-sheet ([2]; Euk33/peptide molar ratio 5:1): 32.5%
β-turn ([2]; Euk33/peptide molar ratio 5:1): 0%
Random ([2]; Euk33/peptide molar ratio 10:1): 64.4%
α-helix ([2]; Euk33/peptide molar ratio 10:1): 7.3%
β-sheet ([2]; Euk33/peptide molar ratio 10:1): 28.3%
β-turn ([2]; Euk33/peptide molar ratio 10:1): 0%
Random ([2]; Euk33/peptide molar ratio 30:1): 59.1%
α-helix ([2]; Euk33/peptide molar ratio 30:1): 10%
β-sheet ([2]; Euk33/peptide molar ratio 30:1): 30.9%
β-turn ([2]; Euk33/peptide molar ratio 30:1): 0%
Random ([2]; Euk33/peptide molar ratio 70:1): 42.5%
α-helix ([2]; Euk33/peptide molar ratio 70:1): 7.4%
β-sheet ([2]; Euk33/peptide molar ratio 70:1): 50.1%
β-turn ([2]; Euk33/peptide molar ratio 70:1): 0%
concentration at which ≥90% of bacteria are killed [3]: 24 µM
concentration at which ≥90% of eukaryotic cells are killed (estimated) [3]: ≈ 128 μM

FKKFLKKFKGWLGGLWGK [A4-183]
cytotoxicity (HBE cells): greatest cytotoxicity at high concentrations
cytotoxicity (THP-1 cells): less toxic in THP-1 cells than in the other cell types
Random ([1]; G(−)IM/peptide molar ratio 0:1): 65.9%
α-helix ([1]; G(−)IM/peptide molar ratio 0:1): 3.1%
β-sheet ([1]; G(−)IM/peptide molar ratio 0:1): 31.0%
β-turn ([1]; G(−)IM/peptide molar ratio 0:1): 0%
Random ([1]; G(−)IM/peptide molar ratio 1:1): 64.1%
α-helix ([1]; G(−)IM/peptide molar ratio 1:1): 4.7%
β-sheet ([1]; G(−)IM/peptide molar ratio 1:1): 31.2%
β-turn ([1]; G(−)IM/peptide molar ratio 1:1): 0%
Random ([1]; G(−)IM/peptide molar ratio 5:1): 59.2%
α-helix ([1]; G(−)IM/peptide molar ratio 5:1): 22.6%
β-sheet ([1]; G(−)IM/peptide molar ratio 5:1): 18.2%
β-turn ([1]; G(−)IM/peptide molar ratio 5:1): 0%
Random [1, 4]: 29.1%
α-helix [1, 4]: 44.4%
β-sheet [1, 4]: 14.9%
β-turn [1, 4]: 11.6%
Random [1, 5]: 0.4%
α-helix [1, 5]: 63.0%
β-sheet [1, 5]: 14.1%
β-turn [1, 5]: 22.5%
Random [1, 6]: 12.4%
α-helix [1, 6]: 66.7%
β-sheet [1, 6]: 8.8%
β-turn [1, 6]: 12.1%
Random [1, 7]: 11.7%
α-helix [1, 7]: 64.9%
β-sheet [1, 7]: 12.5%
β-turn [1, 7]: 10.9%
Random [1, 8]: 13.0%
α-helix [1, 8]: 69.4%
β-sheet [1, 8]: 8.7%
β-turn [1, 8]: 8.9%
Random [1, 10]: 18.2%
α-helix [1, 10]: 63.6%
β-sheet [1, 10]: 9.1%
β-turn [1, 10]: 9.1%
Random ([2]; Euk33/peptide molar ratio 0:1): 65.9%
α-helix ([2]; Euk33/peptide molar ratio 0:1): 3.1%
β-sheet ([2]; Euk33/peptide molar ratio 0:1): 31.0%
β-turn ([2]; Euk33/peptide molar ratio 0:1): 0%
Random ([2]; Euk33/peptide molar ratio 5:1): 64.1%
α-helix ([2]; Euk33/peptide molar ratio 5:1): 8.6%
β-sheet ([2]; Euk33/peptide molar ratio 5:1): 27.3%
β-turn ([2]; Euk33/peptide molar ratio 5:1): 0%
Random ([2]; Euk33/peptide molar ratio 10:1): 67.8%
α-helix ([2]; Euk33/peptide molar ratio 10:1): 13.0%
β-sheet ([2]; Euk33/peptide molar ratio 10:1): 19.2%
β-turn ([2]; Euk33/peptide molar ratio 10:1): 0%
Random ([2]; Euk33/peptide molar ratio 20:1): 61.2%
α-helix ([2]; Euk33/peptide molar ratio 20:1): 10.4%
β-sheet ([2]; Euk33/peptide molar ratio 20:1): 28.4%
β-turn ([2]; Euk33/peptide molar ratio 20:1): 0%
Random ([2]; Euk33/peptide molar ratio 30:1): 60.0%
α-helix ([2]; Euk33/peptide molar ratio 30:1): 13.6% and 14%
β-sheet ([2]; Euk33/peptide molar ratio 30:1): 26.4%
β-turn ([2]; Euk33/peptide molar ratio 30:1): 0%
Random ([2]; Euk33/peptide molar ratio 70:1): 37.4%
α-helix ([2]; Euk33/peptide molar ratio 70:1): 12.2%
β-sheet ([2]; Euk33/peptide molar ratio 70:1): 50.4%
β-turn ([2]; Euk33/peptide molar ratio 70:1): 0%
concentration at which ≥90% of bacteria are killed [3]: 20 µM
concentration at which ≥90% of eukaryotic cells are killed (estimated) [3]: ~64 µM
